Source: PubChem BioAssay (NCI)
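Exposure lasted 48 hours, with cells grown in 96-well plates and compounds tested at five concentrations. Here, GI50 denotes the concentration required for 50% inhibition of growth. TGI marks complete inhibition of growth.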

How the values were obtained:
Assay in all cases: NCI-60 cell line screen, 48 h
SF-539 CNS = system: SF-539 CNS
SNB-19 CNS = system: SNB-19 CNS
UACC-62 melanoma = system: UACC-62 melanoma
NCI-H460 lung = system: NCI-H460 lung
ACHN renal = system: ACHN renal
SK-MEL-5 melanoma = system: SK-MEL-5 melanoma
SF-268 CNS = system: SF-268 CNS
CCRF-CEM leukemia = system: CCRF-CEM leukemia
NCI-H522 lung = system: NCI-H522 lung
OVCAR-5 ovarian = system: OVCAR-5 ovarian
MOLT-4 leukemia = system: MOLT-4 leukemia

Structure (SMILES) | TGI (SF-539 CNS) [µM] | TGI (SNB-19 CNS) [µM] | TGI (UACC-62 melanoma) [µM] | TGI (NCI-H460 lung) [µM] | TGI (ACHN renal) [µM] | TGI (SK-MEL-5 melanoma) [µM] | TGI (SF-268 CNS) [µM] | TGI (CCRF-CEM leukemia) [µM] | TGI (NCI-H522 lung) [µM] | TGI (OVCAR-5 ovarian) [µM] | TGI (MOLT-4 leukemia) [µM] | GI50 (SF-539 CNS) [µM] | GI50 (SNB-19 CNS) [µM] | GI50 (UACC-62 melanoma) [µM] | GI50 (ACHN renal) [µM] | GI50 (SK-MEL-5 melanoma) [µM] | GI50 (CCRF-CEM leukemia) [µM] | GI50 (NCI-H522 lung) [µM] | GI50 (OVCAR-5 ovarian) [µM] | GI50 (MOLT-4 leukemia) [µM]
CCCCCCCCCC/C=C/C=O | > 100 | > 100 | > 100 | > 100 | > 100 | > 100 | > 100 | > 100 | > 100 | > 100 | > 100 |  |  |  |  |  |  |  |  | 
NCCCn1c2c(c3ccc([N+](=O)[O-])cc3c1=O)C(=O)c1cc(F)ccc1-2 | 0.101 | 1.52 | 0.165 |  | 0.142 | 0.199 |  | 0.779 | 0.116 | 0.71 |  | 0.0288 | 0.0589 | 0.036 | 0.0241 | 0.0603 | < 0.0144 | < 0.01 | 0.122 | < 0.01
Cc1cc(C)c(NC(=O)/C=C/c2ccccc2)c(C)c1 | > 100 | > 100 | 93.8 | > 100 | > 100 |  | > 100 | > 100 | 61.8 | > 100 | > 100 |  |  |  |  |  |  |  |  | 
CN1C(=O)CN2C(Cl)(Cl)C2(c2ccccc2)c2cc(Cl)ccc21 (stereo not drawn) |  |  | > 100 | > 100 | > 100 | > 100 | > 100 | > 100 | > 100 | > 100 | 91.9 |  |  |  |  |  |  |  |  | 
O=C1/C(=C/c2ccc(Cl)cc2)N=C(c2ccccc2)N1/N=C/c1ccccc1O | 26.6 | > 100 | 30.3 | 79.2 | 21.2 | > 100 | 47.1 | 7.73 | 35.6 | 34.8 | 38.9 |  |  |  |  |  |  |  |  | 
NC(Cc1ccccc1)c1nn[nH]n1 (stereo not drawn) | > 100 | > 100 | > 100 | > 100 | > 100 | > 100 | > 100 | > 100 | > 100 | > 100 |  |  |  |  |  |  |  |  |  | 
C#C[C@]1(O)[C@@H](CO)O[C@@H](n2ccc(N)nc2=O)[C@@H]1O | 13.5 | > 24 | 0.4 | 0.508 | 0.612 | 0.371 | 6.04 | 4.27 | 0.0365 |  | > 32 |  |  |  |  |  |  |  |  | 
